{"source": "paper PMC4697443", "about": "(Bioorganic & medicinal chemistry, 2015)", "tested_on": "BV2 microglial cells", "note": "Marks after values point to notes of the source that are not given here."}
{"substance": "3-Chloro-N-(1-methyl-1H-benzo[d]imidazol-2-yl)benzamide [Compound 7]", "values": [{"measurement": "Viability", "value": "1000^d μM"}]}
